Results taken from US10265276B2, “Pharmaceutical composition for preventing or treating arthritis or inflammatory disease containing 2-methoxy-4-(3-(4-methoxyphenyl)propyl-1-en-1-yl)phenol as active ingredient” (CHUNGBUK NATIONAL UNIVERSITY INDUSTRY-ACADEMIC COOPERATION …, priority 2015, dated 2019).
Like-named read-outs stand apart in the source and are kept apart here.

Assays:
[1] = tested on: RAW 264.7 cells; experiment: Cell viability (MTT assay) in RAW 264.7 cells; assay type: cell-based, mouse; conditions: up to 4 mg/mL
Protocol: As mouse macrophages, RAW 264.7 macrophages were cultured in a DMEM medium supplemented with 10% FBS. […] of the medium was treated with MMPP, and then stabilized for an hour.
An MTT reagent was added at a concentration of 0.5 mg/mL, and the cells were cultured at 37° C. in an incubator. After the medium was completely removed when 70% of the cells formed crystals, […] of DMSO was added to dissolve the crystals. Subsequently, the optical density was measured at 550 nm.
Morphological changes of the cells were observed under a microscope, and the cell viability was determined using an MTT assay.

[2] = tested on: iNOS; experiment: iNOS-luciferase activity assay in LPS-induced RAW 264.7 cells; assay type: cell-based, mouse; conditions: LPS (1 µg/mL) and MMPP (0 to 4 µg/mL)
Protocol: 9. Cell infection: RAW 264.7 cells (5×10^4 cells/well) were added to a 24-well plate, and transiently infected with a STAT3-luciferase reporter plasmid and an iNOS-luciferase reporter plasmid using a Lipofectamine PLUS and plasmid mixture in OPTI-MEN.
In Experimental Example 4, a luciferase activity assay was carried out to determine whether MMPP inhibited generation of LPS-induced infective factors in RAW 264.7 cells. RAW 264.7 cells were transiently infected with an iNOS-luciferase construct, treated with LPS (1 μg/mL) alone or a combination of MMPP and LPS, and then activated for 12 hours.

[3] = tested on: RAW 264.7 cells; experiment: ROS, PGE2 and pro-inflammatory cytokine assays in LPS-induced RAW 264.7 cells; assay type: cell-based, mouse; conditions: concentration-dependent manner (0 to 4 mg/mL)
Protocol: 7. PEG2 and cytokine Assays: A PGE2 assay was carried out in the cultured RAW 264.7 cells using an ELISA kit (commercially available from R&D Systems).
8. ROS Assay: An ROS assay was carried out using an ELISA kit (commercially available from Cell Biolabs Inc.).
RAW 264.7 cells were transiently infected with a STAT3-luciferase construct, treated with LPS (1 μg/mL) alone or a combination of MMPP and LPS, and then activated for 12 hours. Thereafter, the luciferase activity, the ROS and PGE2 expression, and a level of pro-inflammatory cytokines were determined.

[4] = tested on: STAT3; experiment: Effect of STAT3 siRNA or STAT3 inhibitor on the effect of MMPP in LPS-treated RAW 264.7 cells; assay type: cell-based, mouse; set-up: dose or concentration left out as unconfirmed
Protocol: 11. Luciferase activity assay: RAW264.7 cells added to a 24-well plate at a density of 1×10^5 cells/well. After 90% confluence, the cells were transiently infected with STAT3 siRNA (Santa Cruz Biotechnology) or a mutant STAT3 (T456A) plasmid using a mixture of STAT3 siRNA (Santa Cruz Biotechnology) or a mutant STAT3 (T456A) plasmid and WelFect-EX PLUS in OPTI-MEN. The infected cells were treated with LPS (1 μg/mL) and different concentrations of MMPP (1 to 4 μg/mL) for 12 hours. The luciferase activity was measured using a luciferase assay kit (Promega, Madison, Wis., USA).
First, a protective effect of MMPP on the LPS-induced pro-inflammatory response was tested using RAW 264.7 cells infected with STAT3 siRNA.
The RAW 264.7 cells were infected with STAT3 siRNA. After 24 hours, the infected cells were then treated with […] of LPS alone or in combination with MMPP. Thereafter, the NO generation, the iNOS and COX2 expression, and the DNA binding activity of NF-κB were measured.
Next, it was examined whether an effect of a STAT3 inhibitor in RAW 264.7 cells was limited. RAW 264.7 cells were treated with a STAT3 inhibitor […] alone or in combination with MMPP, and the NO generation, the iNOS and COX2 expression, and the DNA binding activity of NF-κB were also measured.

[5] = molecular target: T1, mutant STAT3 (T456A) (Mus musculus, UniProt P42227, T456A); experiment: Pull-down assay with mutant STAT3; assay type: binding; conditions: compared to the STAT3
T1 construct: A coding region of Mus musculus STAT3 was amplified by PCR using full-length Mus musculus STAT3 cDNA as a template; host or cells: RAW264.7
Source text: As a method for isolating a protein complex, a pull-down assay is an assay for checking a protein-protein interaction. To identify a protein interacting with MMPP, MMPP was bound to […] epoxy-activated Sepharose 6B (Sigma, St Louis, Mo., United States).
2. Construction of plasmid: A coding region of Mus musculus STAT3 was amplified by PCR using full-length Mus musculus STAT3 cDNA as a template. The purified PCR product was doubly digested with EcoRI and XhoI, and then subcloned into a pcDNA3.1 vector. The pcDNA3.1 plasmid includes a cytomegalovirus promoter, a pUC origin of replication, and an ampicillin-resistant gene. STAT3 (T456A) mutagenesis was performed at Cosmo Genetech Co., Ltd. (Seoul, Korea), and the mutations were systematically checked by sequencing. RAW264.7 cells were seeded in a 24-well plate at a density of 1×10^5 cells/well. The cells were grown for 24 hours to reach 90% confluence, and the cells were infected with the mutant STAT3 (T456A) plasmid (Cosmo Genetech Co., Ltd., Seoul, Korea) using a mixture of the plasmid and lipofectamine in PTI-MEN. The infected cells were treated with LPS (1 μg/mL), and different concentrations of MMPP (1 to 4 μg/mL) for 12 hours. The prepared samples were subjected to Western blotting.
To check the interaction between MMPP and STAT3, a pull-down assay was carried out. MMPP was conjugated to epoxy-activated Sepharose 6B. […]

T1 sequence (P42227 whole entry T456A): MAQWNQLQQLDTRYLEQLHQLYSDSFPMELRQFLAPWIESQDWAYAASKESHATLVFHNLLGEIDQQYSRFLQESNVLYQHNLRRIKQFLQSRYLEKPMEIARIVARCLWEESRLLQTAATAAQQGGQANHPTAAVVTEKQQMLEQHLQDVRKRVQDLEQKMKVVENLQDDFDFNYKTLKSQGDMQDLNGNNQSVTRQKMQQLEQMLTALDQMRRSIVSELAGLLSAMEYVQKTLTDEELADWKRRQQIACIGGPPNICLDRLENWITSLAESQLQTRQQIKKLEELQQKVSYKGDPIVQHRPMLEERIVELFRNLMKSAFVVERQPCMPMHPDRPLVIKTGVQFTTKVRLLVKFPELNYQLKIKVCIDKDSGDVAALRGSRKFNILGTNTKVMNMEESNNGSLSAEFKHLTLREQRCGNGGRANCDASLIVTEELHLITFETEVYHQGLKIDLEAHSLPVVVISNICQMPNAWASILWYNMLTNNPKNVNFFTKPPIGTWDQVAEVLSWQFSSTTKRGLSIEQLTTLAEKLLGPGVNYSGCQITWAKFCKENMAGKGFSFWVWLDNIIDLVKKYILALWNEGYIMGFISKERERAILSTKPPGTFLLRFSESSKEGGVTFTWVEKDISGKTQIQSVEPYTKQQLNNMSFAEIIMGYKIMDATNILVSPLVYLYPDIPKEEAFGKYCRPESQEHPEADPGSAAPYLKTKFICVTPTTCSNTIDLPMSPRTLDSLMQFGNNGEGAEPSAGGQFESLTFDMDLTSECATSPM

## COc1ccc(C/C=C/c2ccc(O)c(OC)c2)cc1 [MMPP, 2-methoxy-4-(3-(4-methoxyphenyl)prop-1-en-1-yl)phenol]
[1]; RAW 264.7 cells
  toxicity: no toxicity
[1]
  viability of the LPS-induced RAW 264.7 cells: not affected
[2]
  iNOS luciferase activity: reduced in a concentration-dependent manner
[3]
  PGE2 expression: inhibited
  ROS expression: inhibited
  level of pro-inflammatory cytokines (TNF-α, IL-6 and IL-1): inhibited
[4]
  inhibitory effect of MMPP on LPS-induced NO generation, iNOS and COX2 expression, and NF-κB activity: completely limited
[4]; STAT3 knock-down cells (STAT3 siRNA)
  inhibitory effect of MMPP on LPS-induced NO generation, iNOS and COX2 expression, and NF-κB activity: limited
[5]
  binding of MMPP to mutant STAT3 Thr456A: reduced
